Series [1] in a line: Migration of sunscreen agents across a membrane model for skin. It counts as in vitro ADME. The settings on record: solution in ethanol. On the procedure: The effects of the presence of poly(2-propenal, 2-propenoic acid) on the migration of various agents across a model for skin were studied as follows. Results are shown in Table 8: In a special apparatus, the samples were applied to one side of a 0.45 micron cellulose acetate membrane in contact with, on the other side, a stirred solution of ethanol. “After” 1.5 hours, the spectrum of the “ethanol” was compared with the “Before” solution of sample in the same solvent: […]

Another series has as its system S. aureus. In words: Minimal Kill Concentration Test. Type of series: cell-based. As to the method:
(§1) 2. Minimal Kill Concentration Test
(§2) Make serial 1 in 2 dilutions of the sample using sterile 0.85% saline. Add 0.1 mL of suspension of test organism to the dilution. Incubate at 37° C. for 24 hours. Subculture 1 mL from each tube into 10 mL sterile nutrient broth plus TWEEN 80; incubate at 37° C. for 24 hours.
(§3) If the Minimum Kill Concentrations of compounds A, B, and a mixture of A and B are a, b and m, respectively, then there is synergy (“S”) upon mixing A and B if
(§4) ie. S=(a+b)/m>1 for synergy

The next series deals with Ps. aeruginosa. In words: Minimal Kill Concentration Test. It counts as cell-based. On the procedure:
as §1, §2, §3, §4

A further series deals with C. albicans. In words: Minimal Kill Concentration Test. Type of series: cell-based. The note with it: Experiment 1. As to the method:
as §1, §2, §3, §4

A further series concerns B. cereus. In words: Minimal Kill Concentration Test. Type of series: cell-based. The settings on record: Experiment 1. As to the method:
as §1, §2, §3, §4

The test system of a further series is E. coli. In words: Minimal Kill Concentration Test. Type of series: cell-based. The note with it: Experiment 1. As to the method: as §1, §2, §3, §4
For a further series, the system named is A. niger. In words: Minimal Kill Concentration Test. It counts as cell-based. The note with it: Experiment 1. As to the method:
as §1, §2, §3, §4

The subject of another series is P. vulgaris. In words: Minimal Kill Concentration Test. Type of series: cell-based. The note with it: Experiment 1. On the procedure: as §1, §2, §3, §4

As for `CCCCC(CC)COC(=O)C=Cc1ccc(OC)cc1` (stereo not shown) [octyl methoxy cinnimate], the “max (UV spectrum), Before” value in series [1] is given as “max = 310 nm”.

Regarding `O=CCCCC=O` [glutaraldehyde], the “Minimum Kill Concentration S. aureus” value with S. aureus (Experiment 2) is recorded as 80 p.p.m. Further, the “Minimum Kill Concentration Ps. aeruginosa” value in the series with Ps. aeruginosa (Experiment 2) turned out to be 155 p.p.m.

With `O=C(O)CN(CCN(CC(=O)O)CC(=O)O)CC(=O)O` [EDTA, ethylene diamine tetra acetic acid], in the series with C. albicans, the “Minimum Kill Concentration C. albicans” value stood at 155 p.p.m. In the series on B. cereus, the “Minimum Kill Concentration B. cereus” value is listed as 80 p.p.m. For the same compound, the “Minimum Kill Concentration S. aureus” value in the series with S. aureus (Experiment 1) is 625 p.p.m. Further, the “Minimum Kill Concentration E. coli” value in the series with E. coli was 80 p.p.m. In the series with A. niger, the “Minimum Kill Concentration A. niger” value stood at 1250 p.p.m. Further, the “Minimum Kill Concentration P. vulgaris” value with P. vulgaris was determined as 155 p.p.m. Further, in the series on Ps. aeruginosa (Experiment 1), the “Minimum Kill Concentration Ps. aeruginosa” value is 625 p.p.m.

For the compound `Oc1ccccc1-c1ccccc1.[Na]` [phenol, orthophenylphenol, sodium salt], the “Minimum Kill Concentration S. aureus” value in the series with S. aureus (Experiment 2) is reported as 20 p.p.m. Further, the “Minimum Kill Concentration Ps. aeruginosa” value with Ps. aeruginosa (Experiment 2) is reported as over 10000 p.p.m.

As for `CCCCC(CC)COC(=O)c1ccc(N(C)C)cc1` (stereo not shown) [octyl dimethyl p-aminobenzoate], in series [1], the “max (UV spectrum), Before” value was “max = 315 nm”.

The values are drawn from patent US6410040B1, “Polymeric compounds and methods of formulating same” (Chemeq Limited, priority 1998, dated 2002).
